In article PMC5344518, “Anti-trypanosomal activity of non-peptidic nitrile-based cysteine protease inhibitors” (PLoS Neglected Tropical Diseases, 2017):
Where two headings read alike, the source gives them in different places. Marks after values point to notes of the source that are not given here.

Columns and labels:
[1] = test system: amastigote forms of T. cruzi CL Brener strain; test: Anti-trypanosomal activity assay (beta-galactosidase reporter, infected LLC-MK2 cells); format: cell-based; conditions: Trypanosoma cruzi
Protocol: Assays were performed against amastigote forms of T. cruzi CL Brener strain, which expresses β-galactosidase derived from Escherichia coli, infecting monkey kidney (LLC-MK2) cells as described. Previously, LLC-MK2 host cells were cultivated in 96-wells microplates (10^3 cells/well). […] Then, the wells were washed with PBS to remove the extracellular parasites and the tested compounds were added in the final concentrations of 0.031, 0.125, 0.5, 2.0, 8.0, 32.0, 128 and 512 μM. After this, the microplates were incubated at 37°C, in CO2 atmosphere (5%), for 5 days. Then, 10 μL of FluoReporter lacZ/Galactosidase Quantitation Kit (Molecular Probes, ThermoFisher Scientific) were added and after 30 minutes the fluorometric reaction was read in a microplate reader (Synergy H1, Biotek) at 386 nm excitation and 448 nm emission. The metabolism of the substrate is directly correlated with the amount of β-galactosidase activity and, therefore, the number amastigotes. The percentage of activity for each compound was determined from the following formula: %activity = 100 –{[(X-PC)/(NC-PC)]x100}, where the optical density values of the samples (X), the positive controls (PC) and negative controls (NC) were used. Culture medium alone was used as positive control (PC) and cells with medium and 0.6% DMSO (v/v) as negative control (NC). All assays were performed in triplicate with two independent experiments.

[2] = test system: Balb/C 3T3 clone A31 cells; test: MTT colorimetric cytotoxicity assay; format: cell-based, mouse; conditions: % cytotoxicity in Balb/C 3T3 clone A31 cells at 128 μM; standard deviation (N = 8) in parentheses
Protocol: Inhibition values were determined in the cell-based assay as previously described. […] Cells were plated at a concentration of 10^5 cell/mL in 96-well plates and incubated for 24 h. […] The cell viability was assessed during 24, 48 and 72 h using the MTT (Sigma-Aldrich) reagent, with an incubation time of 3 h. Formazan crystals were dissolved using a solubility reagent composed of DMSO, glacial acetic acid and […] for 1 h. The readout was obtained using Biotek Synergy HT plate reader at 570 nm. Benznidazole was used as control. This assay was done in quadruplicate in two independent experiments. Statistical analyses were made in GraphPad Prism 5. Concentration-response curves were fitted for the best compounds and the statistical parameters are provided with the graphs in S9 Fig in the supplemental material.

LLC-MK2 cells = test: Cytotoxicity in LLC-MK2 cells; format: cell-based, monkey; conditions: % cytotoxicity in LLC-MK2 cells at 128 μM; standard deviation (N = 6) in parentheses
Excerpt: Table 2 Anti-trypanosomal activity of cysteine protease inhibitors. | column: Cytotox LLC-MK2 ^c

Recombinant cruzain = molecular target: T1, Recombinant cruzain (Trypanosoma cruzi, UniProt P25779); test: Enzyme kinetic assay for cruzain (Z-FR-AMC hydrolysis); format: biochemical; conditions: pKi = -log10(Ki/M); uncertainty in parentheses; 37°C, pH 5.5
T1 construct: consisting of the catalytic domain of cruzipain but excluding the carboxy-terminal extension; made in house
T1 sequence (P25779 123-337 limits assumed): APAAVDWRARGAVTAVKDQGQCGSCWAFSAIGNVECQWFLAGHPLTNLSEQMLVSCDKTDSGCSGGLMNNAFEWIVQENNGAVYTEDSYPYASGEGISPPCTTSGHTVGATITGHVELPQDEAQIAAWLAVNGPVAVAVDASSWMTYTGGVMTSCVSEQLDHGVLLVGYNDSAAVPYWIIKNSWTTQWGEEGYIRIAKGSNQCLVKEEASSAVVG
Protocol: Recombinant cruzain, consisting of the catalytic domain of cruzipain but excluding the carboxy-terminal extension, was expressed and purified as previously described. Enzyme kinetic assays for cruzain were carried out at 37°C in 200 μL of a solution containing 100 mM acetate buffer pH 5.5, 300 mM NaCl, 5 mM dithiothreitol (DTT), 5% v/v dimethyl sulfoxide (DMSO), 0.01% v/v Triton X-100 and 0.15 nM cruzain, using Corning® 96-well black flat bottom microplates. (S)-N-(1-((cyanomethyl)amino)-1-oxo-3-phenylpropan-2-yl)benzamide was used as a positive control. The rate of the reaction was monitored using a Biotek Synergy HT plate reader through the fluorescence emission at 460 nm (excitation at 355 nm) due to the hydrolysis of the substrate Z-Phe-Arg-7-amido-4-methylcoumarin (Z-FR-AMC, Sigma-Aldrich). The enzyme stock aliquot was rapidly thawed at 37°C and kept on ice until activation, in which it was incubated for 20 min. in the assay buffer (100 mM acetate pH 5.5 and 5 mM DTT) followed by additional 2 min. incubation with inhibitors before the reaction was started by the addition of the substrate.
Visual inspection and a pre-reading of plate wells were performed to check for possible precipitation and background fluorescence, respectively. Fluorescence emission spectra were also recorded for all inhibitors, using the same excitation wavelength (355 nm) as for the fluorometric assay. […] The reaction was started by the addition of varying concentrations of the substrate and the wells monitored for a total of 5 minutes of reaction. The initial velocities of the substrate hydrolysis under first-order reaction were calculated by Gen5 Biotek software based on the linear-regression coefficient from the data fitting of Relative Fluorescence Unit (mRFU) as a function of time (min).
Each experiment was performed in duplicates for each compound being tested. A control measurement in absence of inhibitor (KM) was carried out for each setup plate and the kinetic affinity constants (Ki) were calculated from non-linear fit of Michaelis-Menten curves to the data of initial velocities as a function of eight different concentrations of the substrate Z-FR-AMC from 30.0–0.8 μM. All inhibitors were evaluated in two different concentrations, which were chosen based on a previous screening (percentage of inhibition) at 1.7 μM substrate (~KM). SigmaPlot (v. 10.0) was employed for the non-linear fit and the kinetic parameters determination.

cathepsin L [3] = molecular target: T2, cathepsin L (Homo sapiens, UniProt P07711); test: Enzyme kinetic assay for cathepsin L; format: biochemical; conditions: pKi = -log10(Ki/M); uncertainty in parentheses; 37°C, pH 5.5
T2 sequence (P07711 114-333, species assumed): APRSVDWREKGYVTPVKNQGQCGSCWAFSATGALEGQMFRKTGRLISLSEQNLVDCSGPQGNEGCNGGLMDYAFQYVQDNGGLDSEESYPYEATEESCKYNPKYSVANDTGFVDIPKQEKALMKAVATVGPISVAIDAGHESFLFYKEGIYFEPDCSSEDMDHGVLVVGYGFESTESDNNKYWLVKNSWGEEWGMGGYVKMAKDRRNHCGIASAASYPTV
Protocol: (§1) Enzyme kinetic assays for cathepsin L were performed in a similar manner to the cruzain assays at 37°C in 200 μL of a solution containing 100 mM acetate buffer pH 5.5, 300 mM NaCl, 1 mM dithiothreitol (DTT), 1 mM EDTA, 5% v/v dimethyl sulfoxide (DMSO), 0.01% v/v Triton X-100 and 0.30 nM cathepsin L, using Corning® 96-well black flat bottom microplates. Using the QFRET technology, compounds 9–12 were tested for inhibition of cathepsin L-mediated cleavage of a synthetic peptide Z-Phe-Arg-AMC (10 μM final concentration) using 0.1 nM [final] human Cat L (prepared in-house). […]

cathepsin L [4] = molecular target: T2, cathepsin L; conditions: pIC50 = -log10(IC50/M); cited from earlier work
Cathepsin B = conditions: pIC50 = -log10(IC50/M); cited from earlier work
Cathepsin S = conditions: pIC50 = -log10(IC50/M); cited from earlier work
Cathepsin K = conditions: pIC50 = -log10(IC50/M); cited from earlier work
human Cat L = molecular target: T3, human Cat L (Homo sapiens, UniProt P07711); test: Cat L inhibition assay (QFRET, Z-Phe-Arg-AMC cleavage); format: biochemical; conditions: pIC50 = -log10(IC50/M); determined using the Cat L inhibition assay method of ref. 24; pH 6.4; read-out: Cathepsin L pIC50 (converted)
T3 construct: made in house
T3 sequence (P07711 114-333): as the sequence (P07711 114-333, species assumed) above
Protocol: as §1

[5] = 120 h, pEC50 = -log10(EC50/M), T. cruzi CL Brener amastigotes in LLC-MK2 cells, 5 days, read-out: pEC50 (anti-trypanosomal activity) (converted)
[6] = LLC-MK2, 0.125 μM, standard deviation (N = 6) in parentheses, read-out: %activity at 0.125 μM
[7] = LLC-MK2, 0.5 μM, standard deviation (N = 6) in parentheses, read-out: %activity at 0.5 μM
[8] = LLC-MK2, 2 μM, standard deviation (N = 6) in parentheses, read-out: %activity at 2 μM
[9] = LLC-MK2, 8 μM, standard deviation (N = 6) in parentheses, read-out: %activity at 8 μM
[10] = LLC-MK2, T. cruzi CL Brener strain, read-out: EC50 (anti-trypanosomal activity)

| SMILES | EC50 [1, 5] [nM] | inhibition at 0.125 µM [1, 6] [%] | inhibition at 0.5 µM [1, 7] [%] | inhibition at 2 µM [1, 8] [%] | inhibition at 8 µM [1, 9] [%] | Cytotox Balb/C 3TC [2] | Cytotox LLC-MK2 (LLC-MK2 cells) | Ki (Recombinant cruzain) [nM] | Ki (cathepsin L [3]) [nM] | Cathepsin L pIC50 (cathepsin L [4]) | Cathepsin B pIC50 (Cathepsin B) | Cathepsin S pIC50 (Cathepsin S) | Cathepsin K pIC50 (Cathepsin K) | EC50 [1, 10] [nM] | IC50 (human Cat L) [nM] | inhibition at 0.125 µM ([1]; LLC-MK2, read-out: %activity at 0.125 μM) [%] | inhibition at 0.5 µM ([1]; LLC-MK2, read-out: %activity at 0.5 μM) [%] | inhibition at 2 µM ([1]; LLC-MK2, read-out: %activity at 2 μM) [%] | inhibition at 8 µM ([1]; LLC-MK2, read-out: %activity at 8 μM) [%] |
| --- | --- | --- | --- | --- | --- | --- | --- | --- | --- | --- | --- | --- | --- | --- | --- | --- | --- | --- | --- |
| O=C(Cn1ccnc1[N+](=O)[O-])NCc1ccccc1 [Compound 1, benznidazole] | 2510 | 3 | 7 | 33 | 59 | 0 (0) % | 41 (8) % |  |  |  |  |  |  |  |  |  |  |  |  |
| CC(C)(F)C[C@H](N[C@@H](c1ccc(-c2ccc(S(C)(=O)=O)cc2)cc1)C(F)(F)F)C(=O)NC1(C#N)CC1 [Compound 4, odanacatib] | 2510 | 22 | 28 | 36 | 44 | 27 (15) % | 31 (4) % | 126 | 6310 | 5.5 ^d | 6.0 ^d | 7.2 ^d | 9.7 ^d |  |  |  |  |  |  |
| N#CC1(NC(=O)[C@H](Cc2ccccc2)N[C@H](c2ccccc2)C(F)(F)F)CC1 [Compound 5, (S)-N-(1-cyanocyclopropyl)-3-phenyl-2-(((R)-2,2,2-trifluoro-1-phenyl-ethyl)amino)propanamide] | 126 | 44 | 55 | 62 | 70 | 1 (7) % | 0 (0) % | 2510 | 794 |  |  |  |  | 120 |  |  |  |  |  |
| N#CCNC(=O)[C@@H]1CCCC[C@H]1C(=O)N1CCCCC1 [Compound 7] |  | 0 | 2 | 9 | 12 | 2 (7) % | 4 (3) % | 7940 |  | < 4 ^e | 5.1 ^e | 5.7 ^e | 7.1 ^e |  |  |  |  |  |  |
| N#CCNC(=O)[C@@H]1CCCC[C@H]1C(=O)N1CCN(c2ccccc2)CC1 [Compound 8] |  | 1 | 7 | 21 | 35 | 0 (0) % | 29 (8) % | 5010 |  | < 4 ^e | 6.3 ^e | 6.0 ^e | 8.1 ^e |  |  |  |  |  |  |
| CS(=O)(=O)c1ccc(N2CCN(C(=O)[C@@H]3CCCC[C@H]3C(=O)NC3(C#N)CC3)CC2)cc1 [Compound 9] |  | 6 | 15 | 30 | 33 | 3 (7) % | 0 (0) % | 5010 |  |  | 5.6 ^g | 5.7 ^g | 7.7 ^g |  | > 10000 |  |  |  |  |
| COc1ccc(N2CCN(C(=O)[C@@H]3CCCC[C@H]3C(=O)NC3(C#N)CC3)[C@H](C)C2)cc1OC [Compound 10] |  |  |  |  |  | 0 (0) % | 15(3) % | 1260 |  |  | 5.7 ^g | 5.8 ^g | 8.4 ^g |  | > 10000 | 6 | 22 | 26 | 28 |
| COc1cc(N2CCN(C(=O)[C@@H]3CCCC[C@H]3C(=O)NC3(C#N)CC3)[C@H](C)C2)ccc1C1CC1 [Compound 11] | 251 | 33 | 62 | 76 | 83 | 0 (0) % | 36 (7) % | 2510 |  |  | 5.9 ^g | 5.9 ^g | 8.5 ^g | 250 | > 10000 |  |  |  |  |
| Cc1nn(C)c2cc(N3CCN(C(=O)[C@@H]4CCCC[C@H]4C(=O)NC4(C#N)CC4)[C@H](C)C3)ccc12 [Compound 12] | 1260 | 20 | 40 | 45 | 50 | 0 (0) % | 8 (2) % | 3160 |  |  | 6.1 ^g | 5.9 ^g | 8.0 ^g | 1300 | > 10000 |  |  |  |  |
